From patent US12233073B2, “Skin care formulations and skin cancer treatment” (Regents of the University of Minnesota, priority 2017, dated 2025) come the findings set out here.

SMILES strings stand for the structures. Values joined by “and” are separate entries in the source; they are usually repeats but may differ in a detail not shown here. Equal entries are not always repeated. Where two headings read alike, the source gives them in different places.

In series [1] the test system is cyclobutane pyrimidine dimers (CPD). The experiment in a line: Cyclobutane pyrimidine dimer (CPD) formation in skin of SKH1 hairless mice exposed to acute SSL. Format: in vivo, mouse. As to conditions: topical 0.1% or 1%. Here is the method: The effect of rocuronium bromide treatment and betamethasone 17-valerate treatment on the formation of cyclobutene pyrimidine dimers was evaluated. sUV-induced DNA damage, predominantly observed as the formation of cyclobutane pyrimidine dimers (CPD), is recognized as an important molecular trigger for the initiation of sUV-induced immunosuppression and carcinogenesis in the skin. FIG. 19A is a chart comparing effect of rocuronium bromide treatment and betamethasone 17-valerate treatment on the formation of cyclobutene pyrimidine dimers in skin tissues from SKH1 hairless mice exposed to acute SSL. FIG. 19C is a photographic array comparing amount of CPD in immunologically stained control mouse skin samples. FIG. 19D is a photographic array comparing amount of CPD in immunologically stained mouse skin samples exposed only to a vehicle. FIG. 19E is a photographic array comparing amount of CPD in immunologically stained mouse skin samples exposed to rocuronium bromide alone. FIG. 19F is a photographic array comparing amount of CPD in immunologically stained mouse skin samples exposed to betamethasone 17-valerate alone. FIG. 19G is a photographic array comparing amount of CPD in immunologically stained mouse skin samples exposed to SSL alone. FIG. 19H is a photographic array comparing amount of CPD in immunologically stained mouse skin samples exposed to SSL with the vehicle. […]

The nature of series [2]: Pharmacokinetics: plasma levels after topical RB cream. The class given is in vivo, SKH1-Hrhr hairless mice. As to conditions: for ng/ml RB (plasma, single mouse): listed as RB; for concentration at 24 h: 24 h post-dose. As to the method:
To assess pharmacokinetics, RB cream (1.0 mg RB in 100 μl cream) was topically applied to the dorsum of SKH1-Hrhr hairless mice (Charles River), and plasma sample were taken at 0, 0.25, 0.5, 1, 2, 6, 24 and 48 hours post-dose (3 mice/time point).

In the case of `CCCCC(=O)O[C@]1(C(=O)CO)[C@@H](C)C[C@H]2[C@@H]3CCC4=CC(=O)C=C[C@]4(C)[C@@]3(F)[C@@H](O)C[C@@]21C` [betamethasone 17-valerate], in series [1], the “sUV-induced CPD production” value is “reduced”.
`C=CC[N+]1([C@H]2C[C@H]3[C@@H]4CC[C@H]5C[C@H](O)[C@@H](N6CCOCC6)C[C@]5(C)[C@H]4CC[C@]3(C)[C@H]2OC(C)=O)CCCC1` [rocuronium bromide]: the “time of peak plasma levels post application” value in series [2] (1.0 mg RB in 100 μl cream topically) is no more than 15 min. The “ng/ml RB (plasma, single mouse)” value in series [2] (0.25 h post-dose, 1.0 mg RB in 100 μl cream topically) is 3058 ng/mL and 18 ng/mL and 210 ng/mL; in series [2] (0.5 h post-dose, 1.0 mg RB in 100 μl cream topically), 123 ng/mL and 36 ng/mL and 73 ng/mL; in series [2] (1 h post-dose, 1.0 mg RB in 100 μl cream topically) it was 7 ng/mL and 25 ng/mL and 48 ng/mL; in series [2] (2 h post-dose, 1.0 mg RB in 100 μl cream topically, BDL = below detection limit (~2 ng/ml)), 15 ng/mL; in series [2] (6 h post-dose, 1.0 mg RB in 100 μl cream topically, BDL = below detection limit (~2 ng/ml)), 8 ng/mL. Moreover, the concentration at 0.25 h in series [2] (SKH1-Hrhr hairless, mouse, plasma, topical, 1 mg, 0.25 h post-dose, 3 mice) came out at 1100 ng/mL. In series [2] (SKH1-Hrhr hairless, mouse, plasma, topical, 1 mg, 0.5 h post-dose, 3 mice), the concentration at 0.5 h was 77.3 ng/mL. For the same compound, the concentration at 1 h in series [2] (SKH1-Hrhr hairless, mouse, plasma, topical, 1 mg, 1 h post-dose, 3 mice) turned out to be 26.7 ng/mL. Besides, the concentration at 2 h in series [2] (SKH1-Hrhr hairless, mouse, plasma, topical, 1 mg, 2 h post-dose, 1.0 mg RB in 100 μl cream topically, BDL = below detection limit (~2 ng/ml), read-out: ng/ml RB (plasma, single mouse)) turned out to be 11 ng/mL; in series [2] (SKH1-Hrhr hairless, mouse, plasma, topical, 1 mg, 2 h post-dose, 3 mice, read-out: MEAN ng/ml RB (plasma)), 8.7 ng/mL. For the same compound, the concentration at 6 h is 7 ng/mL in series [2] (SKH1-Hrhr hairless, mouse, plasma, topical, 1 mg, 6 h post-dose, 1.0 mg RB in 100 μl cream topically, BDL = below detection limit (~2 ng/ml), read-out: ng/ml RB (plasma, single mouse)) and 5 ng/mL in series [2] (SKH1-Hrhr hairless, mouse, plasma, topical, 1 mg, 6 h post-dose, 3 mice, read-out: MEAN ng/ml RB (plasma)). Further, the concentration at 24 h in series [2] (SKH1-Hrhr hairless, mouse, plasma, topical, 1 mg, 1.0 mg RB in 100 μl cream topically, BDL = below detection limit (~2 ng/ml), read-out: ng/ml RB (plasma, single mouse)) was found to be 14 ng/mL; in series [2] (SKH1-Hrhr hairless, mouse, plasma, topical, 1 mg, 3 mice, read-out: MEAN ng/ml RB (plasma)), 4.7 ng/mL. Moreover, the “time at which RB in plasma approaches baseline levels for the assay” value in series [2] (post-dose, 1.0 mg RB in 100 μl cream topically) is reported as “approximately 6 hours”. Also, the “sUV-induced CPD production” value in series [1] is “reduced”.
